This note sets out measurements from PubChem BioAssay (NCI).

SMILES strings stand for the structures.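 48-hour exposure; five concentrations; linearly interpolated endpoints. GI50: concentration for 50% inhibition of growth. The concentration for full growth arrest is given as TGI.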

Test systems include 786-0 renal; COLO 205 colon; HCT-116 colon; MALME-3M melanoma; NCI-H522 lung; OVCAR-3 ovarian; OVCAR-4 ovarian; SF-295 CNS; U251 CNS; LOX IMVI melanoma.
What all share (assay): DTP human tumour cell line panel, 48 h

Take `COc1ccc2c(c1)[n+]([O-])c(-c1cccc(Cl)c1)c(N)[n+]2[O-]`: the TGI (in general, the concentration at which net growth stops) was above 100 µM with 786-0 renal; 30.3 µM with COLO 205 colon; above 100 µM in the test on HCT-116 colon; above 100 µM with MALME-3M melanoma; 30.4 µM with NCI-H522 lung; above 100 µM with OVCAR-3 ovarian. Moreover, the TGI in the test on OVCAR-4 ovarian, with SF-295 CNS and with U251 CNS was above 100 µM throughout.
Regarding `COC1=CC(c2ccc[nH]2)=N/C1=C\c1[nH]c(C)c(C(=O)CCC(=O)Oc2ccc3c(c2)CCC2C3CC[C@]3(C)[C@@H](O)CC[C@@H]23)c1C` (stereo partly specified), the GI50 (as a rule, the concentration that inhibits growth by half) was 2.04 µM in the test on 786-0 renal; 5.15 µM in the test on COLO 205 colon; 1.03 µM in the test on HCT-116 colon; 0.797 µM in the test with LOX IMVI melanoma; 1.99 µM with NCI-H522 lung; 2.96 µM in the test with OVCAR-3 ovarian. Besides, the GI50 is 5.02 µM in the test with OVCAR-4 ovarian, 4 µM in the test on SF-295 CNS and 2.99 µM in the test on U251 CNS. The total growth inhibition concentration (TGI) with 786-0 renal is 4.35 µM; in the test with COLO 205 colon, above 100 µM; with HCT-116 colon, 3.57 µM; with LOX IMVI melanoma, 2.57 µM; with NCI-H522 lung it was 6.5 µM; with OVCAR-3 ovarian, 27.9 µM. Also, the TGI in the test with OVCAR-4 ovarian is above 100 µM; with SF-295 CNS, 20.4 µM; in the test with U251 CNS it was 28.4 µM.
Regarding `O=C(C=Nc1ccccc1C(=O)[O-])c1cccs1.O=C(C=Nc1ccccc1C(=O)[O-])c1cccs1.[Ni+2]`, the concentration for total growth inhibition (TGI) in the test on 786-0 renal is above 100 µM; in the test on COLO 205 colon, above 100 µM; with HCT-116 colon it was above 100 µM; in the test on LOX IMVI melanoma it was above 100 µM; with MALME-3M melanoma it was above 100 µM; in the test with NCI-H522 lung, 55.3 µM. Also, the total growth inhibition concentration (TGI) with OVCAR-3 ovarian, with SF-295 CNS and with U251 CNS was above 100 µM in each case.
Turning to `Cc1ccc([Se](=C(C(=O)c2ccccc2)C(=O)c2ccccc2)c2ccc(C)cc2)cc1`, the TGI is above 100 µM in the test on 786-0 renal; 43.4 µM in the test with COLO 205 colon; above 100 µM in the test with HCT-116 colon; 50.3 µM in the test on MALME-3M melanoma; 72.9 µM in the test with NCI-H522 lung; 74.1 µM with OVCAR-3 ovarian. Moreover, the TGI in the test on OVCAR-4 ovarian is 50.1 µM; in the test with SF-295 CNS, 66.5 µM; with U251 CNS it was 68.2 µM.
Consider `CCCCCCCCCCCCCC[n+]1ccccc1`, for which the GI50 was 1.04 µM with 786-0 renal; 0.614 µM in the test on COLO 205 colon; 0.401 µM with MALME-3M melanoma; 0.923 µM with NCI-H522 lung; 0.674 µM in the test on OVCAR-3 ovarian; 0.32 µM with OVCAR-4 ovarian. Also, the GI50 with SF-295 CNS is 0.9 µM; in the test with U251 CNS it was 0.426 µM. The concentration for total growth inhibition (TGI) with 786-0 renal is 2.42 µM; in the test on COLO 205 colon, 2.12 µM; in the test on MALME-3M melanoma it was 1.59 µM; in the test with NCI-H522 lung, 3.37 µM; with OVCAR-3 ovarian it was 2.26 µM; in the test with OVCAR-4 ovarian it was 2.91 µM. Besides, the TGI with SF-295 CNS came out at 2.62 µM; in the test on U251 CNS, 1.77 µM.
Consider `CN1C(=O)CC2(C)c3cc(O)cc(Br)c3N(C)C12` (stereo unspecified), for which the TGI in the test on 786-0 renal, in the test with COLO 205 colon, with HCT-116 colon, with LOX IMVI melanoma, with MALME-3M melanoma and in the test on NCI-H522 lung was above 100 µM in each case. Besides, the concentration for total growth inhibition (TGI) in the test on OVCAR-3 ovarian, with SF-295 CNS and with U251 CNS was above 100 µM throughout.
As for `Nc1nc(N)c(CCCCc2ccccc2)c(C=O)n1`, the TGI in the test with 786-0 renal was 29.4 µM; with COLO 205 colon, above 100 µM; in the test on HCT-116 colon it was 27.9 µM; in the test with LOX IMVI melanoma it was 32.8 µM; in the test with MALME-3M melanoma, 36.3 µM; with OVCAR-3 ovarian, 32.6 µM. The TGI with OVCAR-4 ovarian amounted to 70.6 µM; with SF-295 CNS it was 64.7 µM; with U251 CNS it was 49.6 µM.
Regarding `CC1CCCC(C(=O)CC2CC(=O)NC(=O)C2)C1=O` (stereo unspecified), the total growth inhibition concentration (TGI) in the test with 786-0 renal, in the test with COLO 205 colon, in the test with HCT-116 colon, in the test with LOX IMVI melanoma, with MALME-3M melanoma and with OVCAR-3 ovarian was above 100 µM throughout. Also, the concentration for total growth inhibition (TGI) in the test with OVCAR-4 ovarian, in the test on SF-295 CNS and in the test with U251 CNS was above 100 µM in each case.
For `COC(=O)Cc1c([C@@]2(C)CCCC(C)(C)C2)ccc2c1C(=O)OC2`, the concentration for total growth inhibition (TGI) in the test on 786-0 renal is 30.8 µM; in the test with COLO 205 colon it was 26.4 µM; in the test on HCT-116 colon, 22 µM; with LOX IMVI melanoma it was 24.2 µM; in the test on MALME-3M melanoma, 38 µM; with NCI-H522 lung, 19.8 µM. The TGI is 20.7 µM in the test with OVCAR-3 ovarian, 26.1 µM with SF-295 CNS and 29.7 µM in the test with U251 CNS.
For `CC1(C)CC(=O)C=C(/C=C/Sc2c(Cl)c(Cl)nc(Cl)c2Cl)C1`, the GI50 in the test with 786-0 renal was 3.92 µM; in the test with COLO 205 colon, 17.2 µM; in the test with HCT-116 colon, 3.85 µM; in the test on LOX IMVI melanoma, 3.26 µM; with NCI-H522 lung, 6.17 µM; in the test on OVCAR-3 ovarian, 2.6 µM. Also, the GI50 in the test on OVCAR-4 ovarian is 20.3 µM; in the test with SF-295 CNS, 17.7 µM; in the test with U251 CNS, 14.8 µM. The concentration for total growth inhibition (TGI) was 15.2 µM with 786-0 renal; 31.3 µM in the test on COLO 205 colon; 13.3 µM in the test with HCT-116 colon; 12.9 µM with LOX IMVI melanoma; 37 µM with NCI-H522 lung; 8.29 µM in the test on OVCAR-3 ovarian. Also, the results for the TGI in the test on OVCAR-4 ovarian, in the test with SF-295 CNS and with U251 CNS were 57.9 µM, 35.6 µM and 28.5 µM, respectively.
Take `COc1cc(-c2cc3ncccc3c3nc(OCCN(C)C)c4cccnc4c23)cc(OC)c1OC`: the GI50 in the test with 786-0 renal was 0.318 µM; with LOX IMVI melanoma it was 0.275 µM; with MALME-3M melanoma, 0.431 µM; with NCI-H522 lung, 0.457 µM; in the test with OVCAR-3 ovarian, 0.64 µM; with OVCAR-4 ovarian it was 0.418 µM. The GI50 in the test with SF-295 CNS is 0.533 µM; in the test with U251 CNS, 0.391 µM. The total growth inhibition concentration (TGI) in the test with 786-0 renal came to 1.16 µM; in the test with LOX IMVI melanoma it was 1.26 µM; in the test with MALME-3M melanoma, 2.5 µM; in the test on NCI-H522 lung, 2.78 µM; with OVCAR-3 ovarian, 3.09 µM; with OVCAR-4 ovarian it was 2.52 µM. Also, the TGI was 2.39 µM with SF-295 CNS and 1.66 µM in the test on U251 CNS.
